How the values were obtained:
CCM-adenocarcinoma = assay: Antitumor activity test using CCM-adenocarcinoma in ICR-JCL mice; format: in vivo; details: intraperitoneal, once a day for 10 days, fifth week
Description: (§1) The ascites cells of Sarcoma 180 were inoculated peritoneally in ICR-JCL mice having a body weight of about 23 g. […] Starting 24 hours after the transplantation, the glucanpolyol of this invention was intraperitoneally administered once a day for 10 days. In the fifth week, the tumor was enucleated and its weight was compared with that in non-treated groups. The tumor inhibition ratio was calculated, and the number of tumors which completely regressed was observed.
(§2) The tumor inhibition ratio was calculated in accordance with the following equation. [formula] wherein C is the average weight of tumor in non-treated groups (10 mice per group),
(§3) T is the average weight of tumor in treated groups (10 mice per group).
(8) An antitumor activity test using CCM-adenocarcinoma in ICR-JCL mice
Six million CCM-adenocarcinoma cells were transplanted into the subcutaneous portion of the right inguinal part of ICR-JCL mice having a body weight of about 23 g, and then the same operation as in (1) above was performed.

Sarcoma 180 [1] = assay: Antitumor activity test using Sarcoma 180 in ICR-JCL mice; format: in vivo; details: intraperitoneal, once a day for 10 days, fifth week
Description: (1) An antitumor activity test using Sarcoma 180 in ICR-JCL mice
(§4) Starting 24 hours after the transplantation, the glucanpolyol of this invention was intraperitoneally administered once a day for 10 days. In the fifth week, the tumor was enucleated and its weight was compared with that in non-treated groups. The tumor inhibition ratio was calculated, and the number of tumors which completely regressed was observed.
as §2, §3

[2] = test system: NTF-reticulum cell sarcoma; assay: Antitumor activity test using NTF-reticulum cell sarcoma in ICR-JCL mice; format: in vivo; details: intraperitoneal, once a day for 10 days, fifth week
Description: as §1, §2, §3
(9) An antitumor activity test using NTF-reticulum cell sarcoma in ICR-JCL mice
Six million NFT-reticulum cell sarcoma cells were transplanted into the subcutaneous portion of the right inguinal part of ICR-JCL mice having a body weight of about 23 g, and then, the same operation as in (1) above was performed.

Sarcoma 180 [3] = assay: Antitumor activity test using Sarcoma 180 in Balb/c mice; format: in vivo; details: intraperitoneal, once a day for 10 days, fifth week
Description: as §1, §2, §3
(5) An antitumor activity test using Sarcoma 180 in Balb/c mice
Six million Sarcoma 180 cells were transplanted into the subcutaneous portion of the right inguinal part of the Balb/c mice having a body weight of about 23 g, and then, the same operation as in (1 ) above was performed.

Sarcoma 180 [4] = assay: Antitumor activity test using Sarcoma 180 in C3H/He mice; format: in vivo; details: intraperitoneal, once a day for 10 days, fifth week
Description: as §4, §2, §3
(4) An antitumor activity test using Sarcoma 180 in C3H/He mice

Sarcoma 180 [5] = assay: Antitumor activity test using Sarcoma 180 in C57 BL/6 mice; format: in vivo; details: intraperitoneal, once a day for 10 days, fifth week
Description: as §1, §2, §3
(6) An antitumor activity test using Sarcoma 180 in C57 BL/6 mice
Six million Sarcoma 180 cells were transplanted into the subcutaneous portion of the right inguinal part of the C57 BL/6 mice having a body weight of about 20 g, and then the same operation as in (1) above was performed.

ICR-JCL mice = assay: Toxicity (LD50) on ICR-JCL mice; format: in vivo
From the text: The toxicity of the β-1,3-glucanpolyol of this invention is very low, and the LD50 values of the products obtained in Examples 1, 4 and 5, for example, on ICR-JCL mice are as shown in Table 10.

[6] = Intrinsic viscosity [.eta.]; format: physicochemical; details: 25° C., aqueous solution; concentration in g/100 ml
Description: The intrinsic viscosity, as used in the present invention, is [.eta.] defined by the following equation. [formula] wherein .eta.sp =(.eta.-.eta.o)/.eta.o =/.eta.o -1 in which .eta. is the viscosity (at 25° C. in aqueous solution) of the solution and .eta.o is the viscosity of the solvent; and C is the concentration in g/100 ml.

Meth-A = assay: Antitumor activity test using Meth-A in Balb/c mice; format: in vivo; details: intraperitoneal, once a day for 10 days, fifth week
Description: as §4, §2, §3
(3) An antitumor activity test using Meth-A in Balb/c mice

Ehrlich Carcinoma = assay: Antitumor activity test using Ehrlich Carcinoma in ICR-JCL mice; format: in vivo; details: intraperitoneal, once a day for 10 days, fifth week
Description: as §4, §2, §3
(2) An antitumor activity test using Ehrlich Carcinoma in ICR-JCL mice

Sarcoma 180 [7] = assay: Antitumor activity test using Sarcoma 180 in ddY mice; format: in vivo; details: intraperitoneal, once a day for 10 days, fifth week
Description: as §1, §2, §3
(7) An antitumor activity test using Sarcoma 180 in ddY mice
Six million Sarcoma 180 cells were transplanted into the subcutaneous portion of the right inguinal part of ddY mice having a body weight of about 23 g, and then, the same operation as in (1) above was performed.

Question: Which “Average weight of tumor” value (CCM-adenocarcinoma; 1 mg/kg/day) does the source give for β-1,3-glucanpolyol [Example 4] here?
Answer: 0 g

Question: And the Complete regression (CCM-adenocarcinoma; 1 mg/kg/day)?
Answer: 10/10

Question: And the Tumor inhibition ratio (CCM-adenocarcinoma; 1 mg/kg/day)?
Answer: 100%

Question: What about the “Average weight of tumor” value (CCM-adenocarcinoma; 5 mg/kg/day) of the same substance?
Answer: 0.23 g

Question: What about the Complete regression (CCM-adenocarcinoma; 5 mg/kg/day) of the same substance?
Answer: 8/10

Question: And the Tumor inhibition ratio (CCM-adenocarcinoma; 5 mg/kg/day)?
Answer: 98.1%

Question: What about the “Average weight of tumor” value (Sarcoma 180 [1]; 1 mg/kg/day) of the same substance?
Answer: 0.92 g

Question: What about the Complete regression (Sarcoma 180 [1]; 1 mg/kg/day) of the same substance?
Answer: 6/10

Question: What about the Tumor inhibition ratio (Sarcoma 180 [1]; 1 mg/kg/day) of the same substance?
Answer: 91.6%

Question: And the “Average weight of tumor” value (Sarcoma 180 [1]; 5 mg/kg/day)?
Answer: 0.41 g

Question: What about the Complete regression (Sarcoma 180 [1]; 5 mg/kg/day) of the same substance?
Answer: 8/10

Question: What about the Tumor inhibition ratio (Sarcoma 180 [1]; 5 mg/kg/day) of the same substance?
Answer: 96.3%

Question: What about the “Average weight of tumor” value ([2]; 1 mg/kg/day) of the same substance?
Answer: 0.67 g

Question: And the Complete regression ([2]; 1 mg/kg/day)?
Answer: 8/10

Question: What about the Tumor inhibition ratio ([2]; 1 mg/kg/day) of the same substance?
Answer: 88.3%

Question: What about the “Average weight of tumor” value ([2]; 5 mg/kg/day) of the same substance?
Answer: 0.83 g

Question: What about the Complete regression ([2]; 5 mg/kg/day) of the same substance?
Answer: 6/10

Question: And the Tumor inhibition ratio ([2]; 5 mg/kg/day)?
Answer: 85.6%

Question: And the “Average weight of tumor” value (Sarcoma 180 [3]; 1 mg/kg/day)?
Answer: 0 g

Question: And the Complete regression (Sarcoma 180 [3]; 1 mg/kg/day)?
Answer: 10/10

Question: What about the Tumor inhibition ratio (Sarcoma 180 [3]; 1 mg/kg/day) of the same substance?
Answer: 100%

Question: What about the “Average weight of tumor” value (Sarcoma 180 [3]; 5 mg/kg/day) of the same substance?
Answer: 0 g

Question: What about the Complete regression (Sarcoma 180 [3]; 5 mg/kg/day) of the same substance?
Answer: 10/10

Question: What about the Tumor inhibition ratio (Sarcoma 180 [3]; 5 mg/kg/day) of the same substance?
Answer: 100%

Question: And the “Average weight of tumor” value (Sarcoma 180 [4]; 1 mg/kg/day)?
Answer: 5.62 g

Question: What about the Complete regression (Sarcoma 180 [4]; 1 mg/kg/day) of the same substance?
Answer: 0/10

Question: What about the Tumor inhibition ratio (Sarcoma 180 [4]; 1 mg/kg/day) of the same substance?
Answer: 56.5%

Question: And the “Average weight of tumor” value (Sarcoma 180 [4]; 5 mg/kg/day)?
Answer: 4.93 g

Question: What about the Complete regression (Sarcoma 180 [4]; 5 mg/kg/day) of the same substance?
Answer: 1/10

Question: And the Tumor inhibition ratio (Sarcoma 180 [4]; 5 mg/kg/day)?
Answer: 61.8%

Question: And the “Average weight of tumor” value (Sarcoma 180 [5]; 1 mg/kg/day)?
Answer: 0.13 g

Question: And the Complete regression (Sarcoma 180 [5]; 1 mg/kg/day)?
Answer: 9/10

Question: And the Tumor inhibition ratio (Sarcoma 180 [5]; 1 mg/kg/day)?
Answer: 96.4%

Question: What about the “Average weight of tumor” value (Sarcoma 180 [5]; 5 mg/kg/day) of the same substance?
Answer: 0.12 g

Question: What about the Complete regression (Sarcoma 180 [5]; 5 mg/kg/day) of the same substance?
Answer: 9/10

Question: And the Tumor inhibition ratio (Sarcoma 180 [5]; 5 mg/kg/day)?
Answer: 96.6%

Question: What about the “Toxicity after ultrasonic treatment” value (ICR-JCL mice; effect of ultrasonic treatment) of the same substance?
Answer: lower toxicity

Question: And the “LD50 Intraperitoneal administration” value (ICR-JCL mice; intraperitoneal, ICR-JCL mice)?
Answer: above 5 g/kg

Question: And the “LD50 Intravenous administration” value (ICR-JCL mice; intravenous, ICR-JCL mice)?
Answer: 1500 mg/kg

Question: And the “LD50 Oral administration” value (ICR-JCL mice; oral, ICR-JCL mice)?
Answer: above 20 g/kg

Question: And the Intrinsic viscosity [.eta.] [6]?
Answer: 3.27 dL/g

Question: And the “Average weight of tumor” value (Meth-A; 5 mg/kg/day)?
Answer: 7.99 g

Question: And the Complete regression (Meth-A; 5 mg/kg/day)?
Answer: 0/10

Question: What about the Tumor inhibition ratio (Meth-A; 5 mg/kg/day) of the same substance?
Answer: 40.2%

Question: What about the “Average weight of tumor” value (Meth-A; 20 mg/kg/day) of the same substance?
Answer: 9.33 g

Question: What about the Complete regression (Meth-A; 20 mg/kg/day) of the same substance?
Answer: 0/10

Question: And the Tumor inhibition ratio (Meth-A; 20 mg/kg/day)?
Answer: 30.2%

Question: And the “Average weight of tumor” value (Ehrlich Carcinoma; 1 mg/kg/day)?
Answer: 1.48 g

Question: What about the Complete regression (Ehrlich Carcinoma; 1 mg/kg/day) of the same substance?
Answer: 6/10

Question: What about the Tumor inhibition ratio (Ehrlich Carcinoma; 1 mg/kg/day) of the same substance?
Answer: 90.1%

Question: And the “Average weight of tumor” value (Ehrlich Carcinoma; 5 mg/kg/day)?
Answer: 0.97 g

Question: And the Complete regression (Ehrlich Carcinoma; 5 mg/kg/day)?
Answer: 6/10

Question: What about the Tumor inhibition ratio (Ehrlich Carcinoma; 5 mg/kg/day) of the same substance?
Answer: 93.5%

Question: What about the “Average weight of tumor” value (Sarcoma 180 [7]; 1 mg/kg/day) of the same substance?
Answer: 0.25 g

Question: What about the Complete regression (Sarcoma 180 [7]; 1 mg/kg/day) of the same substance?
Answer: 8/10

Question: What about the Tumor inhibition ratio (Sarcoma 180 [7]; 1 mg/kg/day) of the same substance?
Answer: 97.7%

Question: And the “Average weight of tumor” value (Sarcoma 180 [7]; 5 mg/kg/day)?
Answer: 0.54 g

Question: And the Complete regression (Sarcoma 180 [7]; 5 mg/kg/day)?
Answer: 8/10

Question: And the Tumor inhibition ratio (Sarcoma 180 [7]; 5 mg/kg/day)?
Answer: 95.2%
